According to ChEMBL document CHEMBL1201862, “PubChem BioAssay data set” (2004):
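A five-concentration, 48-hour dose response in 96-well plates underlies each endpoint, interpolated linearly between surrounding concentrations. GI50 is the concentration that inhibits growth by half.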 Active and inactive are the calls of the source. No stated cut-off is given here; in the data, active = GI50 up to about 1.1 µM and inactive = higher.

Assays:
Assay in all cases: NCI tumour cell line growth inhibition, 48 h
[1] = tested on: CCRF-CEM
[2] = tested on: NCI-H226
[3] = tested on: SNB-19
[4] = tested on: HOP-92
[5] = tested on: EKVX
[6] = tested on: SF-268
[7] = tested on: SK-MEL-2
[8] = tested on: PC-3
[9] = tested on: SK-OV-3
[10] = tested on: OVCAR-4
[11] = tested on: 786-0
[12] = tested on: SNB-75
[13] = tested on: MCF7
[14] = tested on: NCI/ADR-RES
[15] = tested on: OVCAR-5
[16] = tested on: HOP-62
[17] = tested on: Hs-578T
[18] = tested on: NCI-H522
[19] = tested on: CAKI-1
[20] = tested on: OVCAR-3
[21] = tested on: Malme-3M
[22] = tested on: MDA-N
[23] = tested on: BT-549
[24] = tested on: ACHN
[25] = tested on: HT-29
[26] = tested on: RPMI-8226
[27] = tested on: SN12C
[28] = tested on: SF-295
[29] = tested on: DU-145
[30] = tested on: MDA-MB-231
[31] = tested on: UO-31
[32] = tested on: MOLT-4
[33] = tested on: IGROV-1
[34] = tested on: HL-60
[35] = tested on: HCT-116
[36] = tested on: T47D
[37] = tested on: KM12
[38] = tested on: M14
[39] = tested on: SK-MEL-28
[40] = tested on: U-251
[41] = tested on: HCC 2998
[42] = tested on: NCI-H23
[43] = tested on: SW-620
[44] = tested on: TK-10
[45] = tested on: COLO 205
[46] = tested on: UACC-257
[47] = tested on: SK-MEL-5
[48] = tested on: A549
[49] = tested on: UACC-62
[50] = tested on: OVCAR-8
[51] = tested on: MDA-MB-435
[52] = tested on: K562
[53] = tested on: NCI-H460
[54] = tested on: RXF 393
[55] = tested on: LOX IMVI
[56] = tested on: SR
[57] = tested on: A498
[58] = tested on: HCT-15
[59] = tested on: SF-539

How did the GI50 [1] turn out when O=C(Nc1ccccc1)N(CCN(Cc1ccccc1)C(=O)Nc1ccccc1)CCN(Nc1ccccc1)C(=O)Nc1ccccc1 was run?
Its GI50 is > 100 µM (inactive).

What about the GI50 [2] of the same compound?
The GI50 was > 100 µM (inactive).

What about the GI50 [3] of the same compound?
The GI50 was > 100 µM (inactive).

And the GI50 [4]?
Its GI50 is > 100 µM (inactive).

And the GI50 [5]?
The GI50 was > 100 µM (inactive).

What about the GI50 [6] of the same compound?
The GI50 was > 100 µM (inactive).

What about the GI50 [7] of the same compound?
Its GI50 is > 100 µM (inactive).

What about the GI50 [8] of the same compound?
Its GI50 is > 100 µM (inactive).

And the GI50 [9]?
Its GI50 is > 100 µM (inactive).

And the GI50 [10]?
The GI50 was > 100 µM (inactive).

And the GI50 [11]?
The GI50 was > 100 µM (inactive).

What about the GI50 [12] of the same compound?
Its GI50 is > 100 µM (inactive).

What about the GI50 [13] of the same compound?
The GI50 was > 100 µM (inactive).

And the GI50 [14]?
The GI50 was > 100 µM (inactive).

And the GI50 [15]?
The GI50 was > 100 µM (inactive).

And the GI50 [16]?
The GI50 was > 100 µM (inactive).

What about the GI50 [17] of the same compound?
Its GI50 is > 100 µM (inactive).

What about the GI50 [18] of the same compound?
Its GI50 is > 100 µM (inactive).

And the GI50 [19]?
The GI50 was > 100 µM (inactive).

And the GI50 [20]?
The GI50 was > 100 µM (inactive).

And the GI50 [21]?
The GI50 was > 100 µM (inactive).

And the GI50 [22]?
The GI50 was > 100 µM (inactive).

What about the GI50 [23] of the same compound?
The GI50 was > 100 µM (inactive).

And the GI50 [24]?
Its GI50 is > 100 µM (inactive).

And the GI50 [25]?
Its GI50 is > 100 µM (inactive).

And the GI50 [26]?
The GI50 was > 100 µM (inactive).

What about the GI50 [27] of the same compound?
The GI50 was > 100 µM (inactive).

What about the GI50 [28] of the same compound?
The GI50 was > 100 µM (inactive).

What about the GI50 [29] of the same compound?
Its GI50 is > 100 µM (inactive).

What about the GI50 [30] of the same compound?
The GI50 was > 100 µM (inactive).

And the GI50 [31]?
The GI50 was > 100 µM (inactive).

And the GI50 [32]?
Its GI50 is > 100 µM (inactive).

And the GI50 [33]?
The GI50 was > 100 µM (inactive).

What about the GI50 [34] of the same compound?
The GI50 was > 100 µM (inactive).

What about the GI50 [35] of the same compound?
Its GI50 is > 100 µM (inactive).

What about the GI50 [36] of the same compound?
Its GI50 is > 100 µM (inactive).

What about the GI50 [37] of the same compound?
Its GI50 is > 100 µM (inactive).

What about the GI50 [38] of the same compound?
The GI50 was 92.9 µM (inactive).

What about the GI50 [39] of the same compound?
Its GI50 is > 100 µM (inactive).

And the GI50 [40]?
The GI50 was > 100 µM (inactive).

And the GI50 [41]?
Its GI50 is > 100 µM (inactive).

What about the GI50 [42] of the same compound?
The GI50 was > 100 µM (inactive).

And the GI50 [43]?
Its GI50 is > 100 µM (inactive).

What about the GI50 [44] of the same compound?
Its GI50 is > 100 µM (inactive).

And the GI50 [45]?
Its GI50 is > 100 µM (inactive).

What about the GI50 [46] of the same compound?
The GI50 was > 100 µM (inactive).

And the GI50 [47]?
The GI50 was > 100 µM (inactive).

And the GI50 [48]?
Its GI50 is > 100 µM (inactive).

What about the GI50 [49] of the same compound?
The GI50 was > 100 µM (inactive).

And the GI50 [50]?
The GI50 was > 100 µM (inactive).

What about the GI50 [51] of the same compound?
The GI50 was > 100 µM (inactive).

And the GI50 [52]?
Its GI50 is > 100 µM (inactive).

What about the GI50 [53] of the same compound?
The GI50 was > 100 µM (inactive).

What about the GI50 [54] of the same compound?
The GI50 was > 100 µM (inactive).

And the GI50 [55]?
Its GI50 is > 100 µM (inactive).

What about the GI50 [56] of the same compound?
Its GI50 is > 100 µM (inactive).

What about the GI50 [57] of the same compound?
Its GI50 is > 100 µM (inactive).

And the GI50 [58]?
The GI50 was > 100 µM.

Which results are given for O=C(O)/C=C/C=C/c1ccc2c(c1)OCO2 [PIPERIC ACID]?
GI50 [2]: > 100 µM (inactive); GI50 [3]: > 100 µM (inactive); GI50 [4]: > 100 µM (inactive); GI50 [5]: > 100 µM (inactive); GI50 [6]: > 100 µM (inactive); GI50 [7]: > 100 µM (inactive); GI50 [8]: > 100 µM (inactive); GI50 [9]: > 100 µM (inactive); GI50 [10]: > 100 µM (inactive); GI50 [11]: > 100 µM (inactive); GI50 [12]: 36.6 µM (inactive); GI50 [13]: > 100 µM (inactive); GI50 [14]: > 100 µM (inactive); GI50 [15]: > 100 µM (inactive); GI50 [16]: > 100 µM (inactive); GI50 [17]: 82.6 µM (inactive); GI50 [18]: > 100 µM (inactive); GI50 [19]: > 100 µM (inactive); GI50 [20]: > 100 µM (inactive); GI50 [21]: > 100 µM (inactive); GI50 [22]: > 100 µM (inactive); GI50 [23]: > 100 µM (inactive); GI50 [24]: > 100 µM (inactive); GI50 [25]: > 100 µM (inactive); GI50 [26]: > 100 µM (inactive); GI50 [27]: > 100 µM (inactive); GI50 [59]: > 100 µM (inactive); GI50 [28]: > 100 µM (inactive); GI50 [29]: > 100 µM (inactive); GI50 [30]: > 100 µM (inactive); GI50 [31]: > 100 µM (inactive); GI50 [32]: > 100 µM (inactive); GI50 [33]: > 100 µM (inactive); GI50 [34]: > 100 µM (inactive); GI50 [35]: > 100 µM (inactive); GI50 [36]: > 100 µM (inactive); GI50 [37]: > 100 µM (inactive); GI50 [38]: > 100 µM (inactive); GI50 [39]: > 100 µM (inactive); GI50 [40]: > 100 µM (inactive); GI50 [42]: > 100 µM (inactive); GI50 [43]: > 100 µM (inactive); GI50 [44]: > 100 µM (inactive); GI50 [45]: > 100 µM (inactive); GI50 [46]: > 100 µM (inactive); GI50 [47]: 94.4 µM (inactive); GI50 [48]: > 100 µM (inactive); GI50 [49]: > 100 µM (inactive); GI50 [50]: > 100 µM (inactive); GI50 [51]: > 100 µM (inactive); GI50 [52]: > 100 µM (inactive); GI50 [53]: > 100 µM (inactive); GI50 [54]: > 100 µM (inactive); GI50 [55]: > 100 µM (inactive); GI50 [56]: > 100 µM (inactive); GI50 [57]: > 100 µM (inactive); GI50 [58]: > 100 µM
